Data: patent US20150190461A1, “DOSING INSTRUCTIONS FOR ENDOTOXIN-BINDING LIPOPEPTIDES” (priority 2012, published 2015)

Legend:
[1] = human, in vivo; cited from earlier work
blood cells = test: Cytokine batch (batch test II): cytokine release by blood cells in LPS-spiked plasma; assay type: cell-based; settings: PMB 250, 500, 1000 ng/ml; plasma spiked with LPS (E. coli); 4 hours of incubation
Description: Also to be studied is to what extent this endotoxin elimination has the consequence of inhibiting the release of cytokines (batch test II).
A blood donation was taken in 9 blood-donation tubes (9 ml each) and spiked with 5 IU heparin. The plasma was centrifuges, and the cell pellet as incubated on the rolling mixer. The plasma was spiked with LPS and used for batch test I: […]

## colistin
[1]
  serum half-life: 6 to 7.4 h

## polymyxin B [PMB]
Blood cells
  inhibition of cytokine release (TNF-alpha, IL-1beta, IL-6, IL-8) by the blood cells: strong inhibition
  inhibition of the key mediator TNF-alpha: especially pronounced
